The source of these data is the supplement of paper PMC12317010.

Molecules are shown by their SMILES. Counter-ions that a name gives are not always drawn.

The data set can be described thus: collision cross section in nitrogen (drift tube, single-field); higher = larger gas-phase ion size.
[1] abbreviates: ion type: [M-H], ion source: ESI, ion mode: Negative.
Where [2] appears, read: ion type: [M+H], ion source: APCI, ion mode: Positive.
Where [3] appears, read: ion type: [M+H], ion source: ESI, ion mode: Positive.
[4] abbreviates: ion type: [M+Na], ion source: ESI, ion mode: Positive.
Setting [5] is: ion type: [M+], ion source: APCI, ion mode: Positive.
[6] abbreviates: ion source: APCI, ion mode: Positive, ion type: [M]+ (permanent cation).
The mark [7] stands for this setting: ion source: ESI, ion mode: Positive, ion type: [M]+ (permanent cation).
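Also: chemical standards at 10 µM analysed by drift tube IMS-QTOF MS in about 3.95 torr nitrogen, mean of duplicate injections differing ≤1%, mass error below 10 ppm.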

Turning to `CC1C(C)(C)C2=C(C(=O)CCC2)C1(C)C` (stereo unspecified) [Cashmeran], the “collision cross section in nitrogen” value under setting [1] came out at 154.6 Å².
For `CC1(C)S[C@@H]2[C@H](NC(=O)COc3ccccc3)C(=O)N2[C@H]1C(=O)O` [Penicillin VK], the “collision cross section in nitrogen” value by setting is: under setting [2], 182 Å²; under setting [3], 182.1 Å²; under setting [4], 184.1 Å².
For the compound `CC(C)(C)[C@H](O)[C@H](Cc1ccc(Cl)cc1)n1cncn1` [Paclobutrazol], the “collision cross section in nitrogen” value is 171.5 Å² under setting [3] and 189.4 Å² under setting [4].
With `Oc1c(Br)cc(Br)cc1Br` [2,4,6-Tribromophenol], under setting [1], the “collision cross section in nitrogen” value came out at 135.2 Å².
Consider `O=S(=O)(O)C(F)(F)C(F)(F)C(F)(F)C(F)(F)C(F)(F)C(F)(F)C(F)(F)C(F)(F)F` [Potassium perfluorooctanesulfonate], for which, under setting [1], the “collision cross section in nitrogen” value turned out to be 169 Å².
As to `O=C(O)c1ccc2c(c1)nc(C(=O)NC1CCN(C3CC3)CC1)n2Cc1cc(-c2ccc(Cl)s2)on1` [AVE3247], the “collision cross section in nitrogen” value by setting is: under setting [2], 228.1 Å²; under setting [3], 228.8 Å²; under setting [4], 242.2 Å²; under setting [1], 249.7 Å².
On to `Nc1ccc(-c2ccc(N)cc2)cc1` [4,4′-Diamino-1,1′-biphenyl], for which the “collision cross section in nitrogen” value by setting is: under setting [2], 156.9 Å²; under setting [3], 157 Å²; under setting [5], 139.4 Å².
In the case of `Clc1ccc(Nc2nnc(Cc3ccncc3)c3ccccc23)cc1` [Vatalanib dihydrochloride], the “collision cross section in nitrogen” value reads like this: under setting [2], 188 Å²; under setting [3], 187.6 Å²; under setting [4], 191.4 Å²; under setting [1], 188.9 Å².
With `C[C@H]1C(=O)O[C@@H]2CCN3CC=C(COC(=O)[C@](C)(O)[C@]1(C)O)[C@H]23` [Monocrotaline], the “collision cross section in nitrogen” value under setting [2] worked out at 175.4 Å², the “collision cross section in nitrogen” value under setting [3] was 175.3 Å² and the “collision cross section in nitrogen” value under setting [4] turned out to be 178.6 Å².
Take `Nc1nc(Cl)nc2c1ncn2[C@H]1C[C@H](O)[C@@H](CO)O1` [Cladribine]: the “collision cross section in nitrogen” value under setting [2] is 157.2 Å², the “collision cross section in nitrogen” value under setting [3] was found to be 157 Å², the “collision cross section in nitrogen” value under setting [4] was 165.8 Å² and the “collision cross section in nitrogen” value under setting [1] is on record as 159.5 Å².
`CC1=NNC(=O)C1` [3-Methyl-5-pyrazolone]: the “collision cross section in nitrogen” value by setting is: under setting [3], 119.1 Å²; under setting [1], 117.9 Å².
Take `O=S1(=O)OC(c2ccc(O)cc2)(c2ccc(O)cc2)c2ccccc21` [Phenol Red sodium salt]: the “collision cross section in nitrogen” value came out at 179.8 Å² under setting [3] and 181.8 Å² under setting [1].
Regarding `Cc1c(C(=O)c2cnn(C)c2O)ccc(S(C)(=O)=O)c1C1=NOCC1` [Topramezone], the “collision cross section in nitrogen” value under setting [4] worked out at 181.1 Å² and the “collision cross section in nitrogen” value under setting [1] turned out to be 182.9 Å².
On to `CC(C)N1C(=O)N(c2ccccc2)CSC1=NC(C)(C)C` [Buprofezin], for which the “collision cross section in nitrogen” value is, setting by setting: under setting [2], 173.6 Å²; under setting [3], 173.9 Å²; under setting [4], 188 Å².
Turning to `CCCCN(CCC(=O)OCC)C(C)=O` [Ethyl 3-(N-butylacetamido)propionate], the “collision cross section in nitrogen” value by setting is: under setting [2], 149.3 Å²; under setting [4], 162 Å².
For `CC1=C(CC(=O)O)c2cc(F)ccc2/C1=C\c1ccc(S(C)=O)cc1` (stereo unspecified) [Sulindac], the “collision cross section in nitrogen” value under setting [3] was 196.2 Å².
For the compound `CCCC[N+](C)(CCCC)CCCC` [N,N-Dibutyl-N-methylbutan-1-aminium chloride], the “collision cross section in nitrogen” value runs as follows: under setting [6], 153.8 Å²; under setting [7], 154.5 Å².
Take `CO/N=C(/C(=O)OC)c1ccccc1CO/N=C(\C)c1cccc(C(F)(F)F)c1` [Trifloxystrobin]: the “collision cross section in nitrogen” value worked out at 187.4 Å² under setting [2], 187.2 Å² under setting [3] and 193 Å² under setting [4].
In the case of `CCC[C@H](N[C@@H](C)C(=O)N1[C@H](C(=O)O)C[C@@H]2CCCC[C@@H]21)C(=O)OCC` [Perindopril erbumine], the “collision cross section in nitrogen” value is given as 189.7 Å² under setting [3], 196.4 Å² under setting [4] and 190.7 Å² under setting [1].
Take `CCCOC/C(=N\c1ccc(Cl)cc1C(F)(F)F)n1ccnc1` [Triflumizole]: the “collision cross section in nitrogen” value is reported as 179.8 Å² under setting [2], 180 Å² under setting [3] and 170.3 Å² under setting [1].
Consider `CC(Cl)COP(=O)(OCC(C)Cl)OCC(C)Cl` (stereo unspecified) [Tris(2-chloropropyl) phosphate], for which the “collision cross section in nitrogen” value under setting [4] is 171.4 Å².
With `CC(c1cc(C(C)(C)C)cc(C(C)(C)C)c1O)c1cc(C(C)(C)C)cc(C(C)(C)C)c1O` [Tetrabutyl ethylidenebisphenol], under setting [1], the “collision cross section in nitrogen” value came out at 224.4 Å².
On the same count and under the same terms, the value for `CCCCC/C=C\C/C=C\CCCCCCCC(=O)O` [Linoleic acid] was 175.2 Å².
Turning to `CCOP(=S)(OCC)SCS(=O)(=O)CC` [Phorate sulfone], the “collision cross section in nitrogen” value under setting [4] is on record as 162.8 Å².
On to `CCCCCCCCOC(=O)c1cc(O)c(O)c(O)c1` [Octyl gallate], for which, under setting [1], the “collision cross section in nitrogen” value stood at 171.5 Å².
In the case of `CCCC[N+](CCCC)(CCCC)CCCC` [Tetrabutylammonium bromide], the “collision cross section in nitrogen” value came out at 167.2 Å² under setting [6] and 168 Å² under setting [7].
Take `Nc1ccc(N)c2c1C(=O)c1ccccc1C2=O` [1,4-Diaminoanthraquinone]: the “collision cross section in nitrogen” value reads like this: under setting [2], 151.4 Å²; under setting [3], 151.5 Å²; under setting [5], 147.5 Å²; under setting [1], 149.1 Å².
On to `C#CCC1=C(C)C(OC(=O)C2C(C=C(C)C)C2(C)C)CC1=O` (stereo unspecified) [Prallethrin], for which the “collision cross section in nitrogen” value under setting [4] is 182.8 Å².
As for `CCCN(CCC)S(=O)(=O)c1ccc(C(=O)O)cc1` [Probenecid], under setting [1], the “collision cross section in nitrogen” value came to 172.9 Å².
`CCOC(=O)C1CC(=O)C(=C(O)C2CC2)C(=O)C1` (stereo unspecified) [Trinexapac-ethyl]: the “collision cross section in nitrogen” value under setting [4] came to 167.5 Å².
On to `CC(C)(CO)[C@@H](O)C(=O)NCCC(=O)O` [Sodium pantothenate], for which the “collision cross section in nitrogen” value by setting is: under setting [4], 151.2 Å²; under setting [1], 147.1 Å².
On to `COc1ccccc1NC(=O)CC(C)=O` [N-(2-Methoxyphenyl)-3-oxobutanamide], for which the “collision cross section in nitrogen” value under setting [4] was found to be 152.3 Å².
Consider `CC1(C)Cc2cccc(N)c2O1` [2,2-Dimethyl-2,3-dihydro-1-benzofuran-7-amine], for which the “collision cross section in nitrogen” value is, setting by setting: under setting [2], 135.8 Å²; under setting [3], 135 Å².
On to `Cc1c(Cl)c(=O)oc2cc(O)ccc12` [3-Chloro-7-hydroxy-4-methyl-2-benzopyrone], for which the “collision cross section in nitrogen” value under setting [3] is given as 138.4 Å².
On to `OC[C@H]1O[C@@H]2O[C@H]3[C@H](O)[C@@H](O)[C@@H](O[C@H]4[C@H](O)[C@@H](O)[C@@H](O[C@H]5[C@H](O)[C@@H](O)[C@@H](O[C@H]6[C@H](O)[C@@H](O)[C@@H](O[C@H]7[C@H](O)[C@@H](O)[C@@H](O[C@H]1[C@H](O)[C@H]2O)O[C@@H]7CO)O[C@@H]6CO)O[C@@H]5CO)O[C@@H]4CO)O[C@@H]3CO` [alpha-Cyclodextrin], for which the “collision cross section in nitrogen” value by setting is: under setting [3], 277.8 Å²; under setting [4], 278.5 Å²; under setting [1], 286.4 Å².
Take `NC(=O)CN1CCCC1=O` [2-Oxo-1-Pyrrolidineacetamide]: under setting [4], the “collision cross section in nitrogen” value is listed as 136.8 Å².
For `CCCCCCCCCCCCCOP(=O)(O)O` [Monotridecyl phosphate], the “collision cross section in nitrogen” value under setting [1] is 169.9 Å².
For the compound `CCCCOP(=O)(CCCC)OCCCC` [Dibutyl butylphosphonate], the “collision cross section in nitrogen” value under setting [4] turned out to be 181.8 Å².
With `CCCCCCCCCCO[C@@H]1O[C@H](CO)[C@@H](O)[C@H](O)[C@H]1O` [Decyl beta-D-glucopyranoside], the “collision cross section in nitrogen” value under setting [4] came out at 187.7 Å² and the “collision cross section in nitrogen” value under setting [1] was 192.6 Å².
Take `COP(=S)(OC)Oc1c(Cl)cc(C)cc1Cl` [Tolclofos-methyl]: the “collision cross section in nitrogen” value reads like this: under setting [3], 153.6 Å²; under setting [4], 169.1 Å².
On to `C[C@H]1CCCC(=O)CCC/C=C/c2cc(O)cc(O)c2C(=O)O1` [Zearalenone], for which the “collision cross section in nitrogen” value under setting [1] is on record as 177.5 Å².
Take `CC(C)COP(=O)(OCC(C)C)OCC(C)C` [Triisobutyl phosphate]: under setting [4], the “collision cross section in nitrogen” value stood at 183.6 Å².
Regarding `CC(C)n1c(/C=C/[C@H](O)C[C@H](O)CC(=O)O)c(-c2ccc(F)cc2)c2ccccc21` [Fluvastatin], the “collision cross section in nitrogen” value under setting [1] is given as 200 Å².
As to `O=C(O)CC(O)C(=O)O` (stereo unspecified) [Malic acid], the “collision cross section in nitrogen” value under setting [1] is on record as 116.9 Å².
Regarding `S=c1[nH]c(=S)[nH]c(=S)[nH]1` [Trisodium 2,4,6-trithioxo-1,3,5-triazinane-1,3,5-triide], the “collision cross section in nitrogen” value under setting [1] is 125.6 Å².
In the case of `CCCCCCCC(=O)OC` [Methyl octanoate], the “collision cross section in nitrogen” value under setting [1] was 146.7 Å².
In the case of `CCOC(=O)c1ccccc1C(=O)O` [Monoethyl phthalate], the “collision cross section in nitrogen” value under setting [1] stood at 142 Å².
For `CCOC(=O)CC(=O)c1ccccc1` [Ethyl benzoylacetate], the “collision cross section in nitrogen” value under setting [4] was found to be 155.9 Å².
For `O=C(O)CCCOC(=O)c1ccccc1C(=O)O` [Mono(3-carboxypropyl)phthalate], under setting [4], the “collision cross section in nitrogen” value is listed as 156.3 Å².
`CC(O)CN(CCCN(C)C)CCCN(C)C` (stereo unspecified) [1-{Bis[3-(dimethylamino)propyl]amino}propan-2-ol]: the “collision cross section in nitrogen” value reads like this: under setting [2], 157.5 Å²; under setting [3], 158.1 Å²; under setting [4], 158.4 Å².
In the case of `OC(Cc1ccccc1Cl)(Cn1nc[nH]c1=S)C1(Cl)CC1` (stereo unspecified) [Prothioconazole], the “collision cross section in nitrogen” value under setting [4] came to 174.4 Å² and the “collision cross section in nitrogen” value under setting [1] was determined as 171 Å².
Take `Cc1ccc2[nH]nnc2c1` [5-Methyl-1H-benzotriazole]: the “collision cross section in nitrogen” value was found to be 125.1 Å² under setting [2], 124.8 Å² under setting [3] and 125.2 Å² under setting [1].
